Laboratory results published in EPA's CvTdb concentration-time database.

Tests used:
Assay in all cases: concentration in plasma after dosing
Rat [1] = conditions: 5 min; dosed: Oxymetholone; 20 mg/kg; iv; Male; F344/N
Rat [2] = conditions: 8 h; dosed: Oxymetholone; 120 mg/kg; oral; Male; F344/N
Rat [3] = conditions: 1 h; dosed: Oxymetholone; 20 mg/kg; iv; Male; F344/N
Rat [4] = conditions: 10 min; dosed: Oxymetholone; 120 mg/kg; oral; Male; F344/N
Rat [5] = conditions: 20 min; dosed: Oxymetholone; 20 mg/kg; iv; Male; F344/N
Rat [6] = conditions: 10 min; dosed: Oxymetholone; 120 mg/kg; oral; Male; F344/N; remark: listed apart in the source
Rat [7] = conditions: 3 h; dosed: Oxymetholone; 120 mg/kg; oral; Male; F344/N
Rat [8] = conditions: 2 h; dosed: Oxymetholone; 120 mg/kg; oral; Male; F344/N
Rat [9] = conditions: 40 min; dosed: Oxymetholone; 120 mg/kg; oral; Male; F344/N
Rat [10] = conditions: 10 min; dosed: Oxymetholone; 20 mg/kg; iv; Male; F344/N
Rat [11] = conditions: 4 h; dosed: Oxymetholone; 120 mg/kg; oral; Male; F344/N
Rat [12] = conditions: 1 h; dosed: Oxymetholone; 20 mg/kg; iv; Male; F344/N; remark: listed apart in the source
Rat [13] = conditions: 20 min; dosed: Oxymetholone; 20 mg/kg; iv; Male; F344/N; remark: listed apart in the source
Rat [14] = conditions: 5 min; dosed: Oxymetholone; 20 mg/kg; iv; Male; F344/N; remark: listed apart in the source
Rat [15] = conditions: 2 h; dosed: Oxymetholone; 120 mg/kg; oral; Male; F344/N; remark: listed apart in the source
Rat [16] = conditions: 2 h; dosed: Oxymetholone; 20 mg/kg; iv; Male; F344/N
Rat [17] = conditions: 2 h; dosed: Oxymetholone; 30 mg/kg; oral; Male; F344/N
Rat [18] = conditions: 0.5 h; dosed: Oxymetholone; 20 mg/kg; iv; Male; F344/N
Rat [19] = conditions: 8 h; dosed: Oxymetholone; 120 mg/kg; oral; Male; F344/N; remark: listed apart in the source
Rat [20] = conditions: 40 min; dosed: Oxymetholone; 30 mg/kg; oral; Male; F344/N
Rat [21] = conditions: 4 h; dosed: Oxymetholone; 20 mg/kg; iv; Male; F344/N
Rat [22] = conditions: 40 min; dosed: Oxymetholone; 30 mg/kg; oral; Male; F344/N; remark: listed apart in the source
Rat [23] = conditions: 1 h; dosed: Oxymetholone; 120 mg/kg; oral; Male; F344/N
Rat [24] = conditions: 10 min; dosed: Oxymetholone; 20 mg/kg; iv; Male; F344/N; remark: listed apart in the source
Rat [25] = conditions: 3 h; dosed: Oxymetholone; 120 mg/kg; oral; Male; F344/N; remark: listed apart in the source
Rat [26] = conditions: 2 h; dosed: Oxymetholone; 30 mg/kg; oral; Female; F344/N
Rat [27] = conditions: 2 h; dosed: Oxymetholone; 120 mg/kg; oral; Female; F344/N
Rat [28] = conditions: 2 h; dosed: Oxymetholone; 30 mg/kg; oral; Male; F344/N; remark: listed apart in the source
Rat [29] = conditions: 2 h; dosed: Oxymetholone; 30 mg/kg; oral; Female; F344/N; remark: listed apart in the source
Rat [30] = conditions: 4 h; dosed: Oxymetholone; 30 mg/kg; oral; Male; F344/N
Rat [31] = conditions: 4 h; dosed: Oxymetholone; 30 mg/kg; oral; Male; F344/N; remark: listed apart in the source
Rat [32] = conditions: 5 h; dosed: Oxymetholone; 120 mg/kg; oral; Male; F344/N
Rat [33] = conditions: 40 min; dosed: Oxymetholone; 120 mg/kg; oral; Male; F344/N; remark: listed apart in the source
Rat [34] = conditions: 12 h; dosed: Oxymetholone; 120 mg/kg; oral; Male; F344/N
Rat [35] = conditions: 0.5 h; dosed: Oxymetholone; 20 mg/kg; iv; Male; F344/N; remark: listed apart in the source
Rat [36] = conditions: 1 h; dosed: Oxymetholone; 120 mg/kg; oral; Male; F344/N; remark: listed apart in the source
Rat [37] = conditions: dosed: Oxymetholone, F344/N
Rat [38] = conditions: 2 h; dosed: Oxymetholone; 120 mg/kg; oral; Female; F344/N; remark: listed apart in the source
Rat [39] = conditions: 6 h; dosed: Oxymetholone; 120 mg/kg; oral; Male; F344/N
Rat [40] = conditions: 2 h; dosed: Oxymetholone; 20 mg/kg; iv; Male; F344/N; remark: listed apart in the source

C[C@]12C/C(=C/O)C(=O)C[C@@H]1CC[C@@H]1[C@@H]2CC[C@@]2(C)[C@H]1CC[C@]2(C)O [Oxymetholone]
Conditions	concentration in plasma [µg/mL]
Rat [1]	14.4
Rat [2]	0.339
Rat [3]	1.49
Rat [4]	0.666
Rat [5]	3.01
Rat [6]	0.319
Rat [7]	1.07
Rat [8]	1.33
Rat [9]	0.675
Rat [10]	8.04
Rat [11]	0.91
Rat [12]	0.881
Rat [13]	2.21
Rat [14]	20.3
Rat [15]	1.61
Rat [16]	0.914
Rat [17]	0.875
Rat [18]	1.72
Rat [19]	0.203
Rat [20]	0.629
Rat [21]	0.376
Rat [22]	0.641
Rat [23]	0.952
Rat [24]	6.51
Rat [25]	1.08
Rat [26]	0.276
Rat [27]	0.918
Rat [28]	0.711
Rat [29]	0.231
Rat [30]	0.466
Rat [31]	0.316
Rat [32]	0.6
Rat [33]	0.733
Rat [34]	0.255
Rat [35]	2.19
Rat [36]	0.739
Rat [38]	1.02
Rat [39]	0.462
Rat [40]	0.846

concentration in plasma [µg/mL], Rat [37]
Conditions	Female	Male
0.5 h, 20 mg/kg, iv	–	2.07
1 h, 20 mg/kg, iv	–	1.21
1 h, 120 mg/kg, oral	–	0.999
1.5 h, 120 mg/kg, oral	–	0.616
2 h, 20 mg/kg, iv	–	0.619
2 h, 30 mg/kg, oral	0.266	0.875
2 h, 120 mg/kg, oral	0.687	1.13
3 h, 120 mg/kg, oral	–	0.925
4 h, 20 mg/kg, iv	–	0.496
4 h, 30 mg/kg, oral	–	0.427
4 h, 120 mg/kg, oral	–	0.977
5 h, 120 mg/kg, oral	–	0.527
5 min, 20 mg/kg, iv	–	20.6
6 h, 120 mg/kg, oral	–	0.806
8 h, 120 mg/kg, oral	–	0.428
10 min, 20 mg/kg, iv	–	5.51
10 min, 120 mg/kg, oral	–	0.626
12 h, 120 mg/kg, oral	–	0.208
20 min, 20 mg/kg, iv	–	4.27
20 min, 120 mg/kg, oral	–	0.788
40 min, 30 mg/kg, oral	–	0.564
40 min, 120 mg/kg, oral	–	0.684
